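Test compounds were applied to cells in 96-well plates for 48 hours at 5 doses. GI50 is the concentration that inhibits growth by half.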 Calls of active or inactive are those of the source. No stated cut-off is given here; in the data, active = GI50 up to about 1.1 µM and inactive = higher.
Legend:
Test in all cases: growth of human tumour cells (NCI), 48 h
[1] = tested on: BT-549
[2] = tested on: Malme-3M
[3] = tested on: T47D
[4] = tested on: HCC 2998
[5] = tested on: TK-10
[6] = tested on: HCT-116
[7] = tested on: U-251
[8] = tested on: MDA-N
[9] = tested on: MDA-MB-231
[10] = tested on: HT-29
[11] = tested on: HOP-62
[12] = tested on: SN12C
[13] = tested on: MDA-MB-435
[14] = tested on: CCRF-CEM
[15] = tested on: MOLT-4
[16] = tested on: UACC-62
[17] = tested on: K562
[18] = tested on: COLO 205
[19] = tested on: SF-268
[20] = tested on: DLD-1

SMILES | GI50 [1] | GI50 [2] | GI50 [3] | GI50 [4] | GI50 [5] | GI50 [6] | GI50 [7] | GI50 [8] | GI50 [9] | GI50 [10] | GI50 [11] | GI50 [12] | GI50 [13] | GI50 [14] | GI50 [15] | GI50 [16] | GI50 [17] | GI50 [18] | GI50 [19] | GI50 [20]
COc1cc2c(cc1OC)-c1cc3ccccc3c(=O)n1CCC2 | 13.1 µM (inactive) | 20 µM (inactive) | 17.9 µM (inactive) | 13.7 µM (inactive) | 16.3 µM (inactive) | 3.94 µM (inactive) | 6.49 µM (inactive) | 3.56 µM (inactive) | 5.47 µM (inactive) | 4.17 µM (inactive) | 12 µM (inactive) | 13.1 µM (inactive) | 5.69 µM (inactive) | 6.73 µM (inactive) | 1.89 µM (inactive) | 11.4 µM (inactive) | 3.21 µM (inactive) | 8.47 µM (inactive) | 13.3 µM (inactive) | 
O=[N+]([O-])C=C1c2ccccc2-c2ccccc21 |  |  |  | 16.8 µM (inactive) | 18.3 µM (inactive) | 4.75 µM (inactive) | > 10 µM (inactive) |  |  | 20 µM (inactive) | 17.5 µM (inactive) | 18.9 µM (inactive) |  | 4.91 µM (inactive) | 3.7 µM (inactive) |  | 2.52 µM (inactive) | 1.86 µM (inactive) | 19.9 µM (inactive) | 2.84 µM (inactive)
COc1ccc(C(O)C(c2ccc(OCc3ccccc3)cc2)c2ccc(OCc3ccccc3)cc2)cc1 (stereo not given) |  | > 100 µM (inactive) |  | > 100 µM (inactive) | > 100 µM (inactive) | > 100 µM (inactive) | > 100 µM (inactive) |  |  | > 100 µM (inactive) | > 100 µM (inactive) | > 100 µM (inactive) |  | > 100 µM (inactive) |  | > 100 µM (inactive) | > 100 µM (inactive) | > 100 µM (inactive) | > 100 µM (inactive) | > 100 µM (inactive)
CCC(C)CN1C(=O)NC(C)(Cc2ccccc2)C1=O (stereo not given) |  | > 100 µM (inactive) |  | > 100 µM (inactive) | > 100 µM (inactive) |  | > 100 µM (inactive) |  |  | > 100 µM (inactive) | > 100 µM (inactive) | > 100 µM (inactive) |  |  |  |  |  | > 100 µM (inactive) | > 100 µM (inactive) | > 100 µM (inactive)
Oc1ncnc2c1nnn2CCCn1nnc2c(O)ncnc21 |  |  |  | > 100 µM (inactive) | > 100 µM (inactive) | > 100 µM (inactive) | > 100 µM (inactive) |  |  | > 100 µM (inactive) | > 100 µM (inactive) | > 100 µM (inactive) |  | > 100 µM (inactive) | > 100 µM (inactive) | > 100 µM (inactive) | > 100 µM (inactive) | > 100 µM (inactive) | > 100 µM (inactive) | > 100 µM (inactive)
CC1=NN(C(=O)c2ccc([N+](=O)[O-])cc2)C(=O)C1/N=N/c1ccccc1C(=O)O (stereo not given) |  | > 100 µM (inactive) |  | > 100 µM (inactive) | > 100 µM (inactive) | > 100 µM (inactive) | 99.1 µM (inactive) |  |  | > 100 µM (inactive) |  | > 100 µM (inactive) |  | 75 µM (inactive) | > 100 µM (inactive) | 45 µM (inactive) | 71.3 µM (inactive) | > 100 µM (inactive) | > 100 µM (inactive) | > 100 µM (inactive)
O=C(CCCCCCCCCCc1ccccc1)C1=C(O)CCCC1=O |  |  |  | 35.9 µM (inactive) | 42.2 µM (inactive) | 22.9 µM (inactive) | 29.2 µM (inactive) |  |  | 26.6 µM (inactive) | 43.7 µM (inactive) | 35.2 µM (inactive) |  | 16.8 µM (inactive) | 30.3 µM (inactive) | 25.5 µM (inactive) | 19.8 µM (inactive) | 17.6 µM (inactive) | 17.5 µM (inactive) | 41.1 µM (inactive)
CC1CC(Br)C(=O)O1 (stereo not given) | > 100 µM (inactive) | > 100 µM (inactive) | > 100 µM (inactive) | > 100 µM (inactive) | > 100 µM (inactive) | > 100 µM (inactive) | > 100 µM (inactive) | > 100 µM (inactive) | > 100 µM (inactive) | > 100 µM (inactive) | > 100 µM (inactive) | > 100 µM (inactive) | > 100 µM (inactive) | > 100 µM (inactive) | > 100 µM (inactive) | > 100 µM (inactive) | 47 µM (inactive) | > 100 µM (inactive) | > 100 µM (inactive) | 
C/C=C1/CCC2c3[nH]c4ccccc4c3CCN2C1 (stereo not given) |  | 0.256 µM (active) |  |  | > 100 µM (inactive) | 66.5 µM (inactive) | > 100 µM (inactive) |  |  | 45.7 µM (inactive) | > 100 µM (inactive) | > 100 µM (inactive) |  | > 100 µM (inactive) | > 100 µM (inactive) | 60.8 µM (inactive) | 32 µM (inactive) |  | > 100 µM (inactive) | > 100 µM (inactive)
C=C1c2c(n(S(=O)(=O)c3ccccc3)c3ccccc23)[C@@]2(C(=O)OC)CC3C=CC2N1C3 | > 100 µM (inactive) | > 100 µM (inactive) | > 100 µM (inactive) | > 100 µM (inactive) | > 100 µM (inactive) | > 100 µM (inactive) | > 100 µM (inactive) | > 100 µM (inactive) | > 100 µM (inactive) | > 100 µM (inactive) | > 100 µM (inactive) | > 100 µM (inactive) | > 100 µM (inactive) | > 100 µM (inactive) | > 100 µM (inactive) | > 100 µM (inactive) | > 100 µM (inactive) | > 100 µM (inactive) | > 100 µM (inactive) | 
O=C(CC(=O)N1N=C(c2ccccc2)C(/N=N/c2ccc(C(=O)O)cc2)C1=O)Nc1ccc(F)cc1 (stereo not given) |  | 60.7 µM (inactive) |  |  | 33.1 µM (inactive) | 12.2 µM (inactive) |  |  |  | 48.9 µM (inactive) |  | 38.9 µM (inactive) |  |  |  | 20.5 µM (inactive) | 18.9 µM (inactive) | 43.8 µM (inactive) | 15.9 µM (inactive) | 20.9 µM (inactive)
CC(C)(C)N(Cc1ccccc1)C(=O)/C=C\[S+]([O-])c1ccccc1 (stereo not given) | 2.94 µM (inactive) | 1.69 µM (inactive) | 4.2 µM (inactive) | 6.28 µM (inactive) | 6.75 µM (inactive) | 2.43 µM (inactive) | 3.88 µM (inactive) | 2.16 µM (inactive) | 3.27 µM (inactive) | 4.11 µM (inactive) | 8.24 µM (inactive) | 2.61 µM (inactive) | 2.65 µM (inactive) | 1.35 µM (inactive) | 2.03 µM (inactive) | 4.39 µM (inactive) | 2.22 µM (inactive) | 4.72 µM (inactive) | 2.07 µM (inactive) | 
CC(C)(C)OC(=O)NC(Cc1ccc(OCc2ccccc2)cn1)C(=O)N1CCSCC1 (stereo not given) | 27.9 µM (inactive) | 46.5 µM (inactive) | 20.8 µM (inactive) | 57.8 µM (inactive) | 47.3 µM (inactive) | 48.6 µM (inactive) | 74.3 µM (inactive) | 40.8 µM (inactive) | > 100 µM (inactive) | 32.7 µM (inactive) | > 100 µM (inactive) | 44.6 µM (inactive) | 28.6 µM (inactive) | 29.9 µM (inactive) | 22.9 µM (inactive) | 52.5 µM (inactive) | 31.7 µM (inactive) | 18.6 µM (inactive) | 65.3 µM (inactive) | 
O=[N+]([O-])c1nccn1COCCO |  | > 100 µM (inactive) |  | > 100 µM (inactive) | > 100 µM (inactive) | > 100 µM (inactive) | > 100 µM (inactive) |  |  | > 100 µM (inactive) | > 100 µM (inactive) | > 100 µM (inactive) |  | > 100 µM (inactive) | 0.442 µM (active) |  |  | > 100 µM (inactive) | > 100 µM (inactive) | > 100 µM (inactive)
Cc1cccc(C(C)(C)C)c1NC(=O)CC1C(=O)Nc2ccccc2[S+]1[O-] (stereo not given) |  | 54 µM (inactive) |  | 68.1 µM (inactive) | 46.5 µM (inactive) | 40.6 µM (inactive) | 58.9 µM (inactive) |  |  | 65 µM (inactive) | > 100 µM (inactive) | 55.8 µM (inactive) |  |  | 20.3 µM (inactive) |  | 34.1 µM (inactive) | 21.1 µM (inactive) | > 100 µM (inactive) | 44.9 µM (inactive)
[N-]=[N+]=Nc1ccccc1-[n+]1noc([O-])c1Br |  | > 100 µM (inactive) |  |  | > 100 µM (inactive) | > 100 µM (inactive) | > 100 µM (inactive) |  |  | > 100 µM (inactive) | > 100 µM (inactive) | > 100 µM (inactive) |  | > 100 µM (inactive) | > 100 µM (inactive) | > 100 µM (inactive) | > 100 µM (inactive) | > 100 µM (inactive) | > 100 µM (inactive) | > 100 µM (inactive)
COC(=O)[C@]12CC[C@H]3CN(C(=O)OCc4ccccc4)[C@H]([C@H]31)[C@H](C(=O)OCC[Si](C)(C)C)N2S(=O)(=O)c1ccc(C)cc1 | > 100 µM (inactive) | 96.6 µM (inactive) | 5.32 µM (inactive) | > 100 µM (inactive) | > 100 µM (inactive) | 23 µM (inactive) | > 100 µM (inactive) | 74 µM (inactive) | 8.13 µM (inactive) | 42.7 µM (inactive) | > 100 µM (inactive) | > 100 µM (inactive) | > 100 µM (inactive) | 54 µM (inactive) | 19.5 µM (inactive) | > 100 µM (inactive) | 15.3 µM (inactive) | 17.5 µM (inactive) | > 100 µM (inactive) | 
C#CCn1ncc2c(SCc3ccccc3)ncnc21 | > 100 µM (inactive) | > 100 µM (inactive) | 3.05 µM (inactive) | > 100 µM (inactive) | > 100 µM (inactive) | 62.8 µM (inactive) | > 100 µM (inactive) | > 100 µM (inactive) | > 100 µM (inactive) | > 100 µM (inactive) | > 100 µM (inactive) | > 100 µM (inactive) | 99.5 µM (inactive) | 79.8 µM (inactive) | 11.8 µM (inactive) | > 100 µM (inactive) | 52.7 µM (inactive) | > 100 µM (inactive) | > 100 µM (inactive) | 

From ChEMBL document CHEMBL1201862, “PubChem BioAssay data set” (2004)
